Data on one molecule can be found in patent publication US20070248488A1, “METHOD AND APPARATUS FOR REDUCING MICROORGANISMS IN WATER” (VORTEX CORPORATION, priority 2006, published 2007).

The subject of test [1] is heterotrophic plate count. The following applies: reduced from 960 cfu/mL; raw water source for drinking water plant; cited from earlier work.
The subject of a further test is adenoviruses. The following applies: Ct value of 0.6 mg/L min, 5° C.; cited from earlier work.
The subject of test [2] is Adenovirus 2 (ATCC# VR-846). Briefly: Adenovirus inactivation in de-chlorinated tap water (TCID50 on PLC cells). To be noted: Initial titer 1.33 × 10^6 TCID50/ml; 2 L/minute; UV approx. 48 mJ/cm^2; ozone about 0.08 mg/L. The test is classed as cell-based.
Text: It was capable of processing 2 liters per minute of water. To study the effects of UV light only, the ozone generated by the apparatus was diverted away and not injected into the water stream. The UV dose (mJ/cm^2) was previously calibrated and found to be approximately 48 mJ/cm^2 as determined by MS-2 coliphagae biodosimetry. To study the effects of ozone only, the UW lamp was shrouded with a stainless steel sleeve to prevent any water from being exposed to the UW light from lamp 14. The ozone dose was measured in all cases to be about 0.08 mg/L. To study the combination of UV light with the ozone, the ozone was injected at the base of vessel 22 via a venturi as previously described.
Log Reductions in microorganisms were calculated as follows: Log 10 Reduction=Log10[Final titer]−Log10[Initial titer]
Adenovirus 2 (ATCC# VR-846) was obtained from the American Type Culture Collection. It was maintained on PLC (Primary Liver Carcinoma, ATCC# CRL-8024) cell line monolayers with MEM (Minimal essential Medium modified with Earle's salts) containing 2$ FBS (Fetal Bovine Serum) at an incubation temperature of 35° C. with 5% CO2. Viruses were purified by centrifugation (7756×g) to remove cell debris followed by polyethylene glycol (9% PEG, 0.5 mol/L NaCl) precipitation. […]
In another test the test system is MS-2 coliphage. Briefly: Ozone and UV disinfection of MS-2 phage in dechlorinated tap water. The test is classed as cell-based. The following applies: Ozone Level (OR) 400 mV, exposure time 5 min; UV Dose 0 mJ/cm^2; room temperature, pH 7.6; MS-2 3.3×10^7 pfu/mL. How it is done:
Propagation and assay of MS-2 coliphage was performed in accordance with Thurston-Enriquez et al. (2003a). Expected UV inactivation was derived from the work of Thurston-Enriquez et al. (2003a).
Ozone was generated by a corona discharge generator and injected into 4 L of dechlorinated tap water at room temperature and pH 7.6. The water was raised and maintained to an Oxidation Reduction Potential (OR) of 400 mV. On addition of the MS-2 to a concentration of 3.3×10^7 pfu/mL, the OR was maintained at 400 mV for five minutes. At the five minute mark, samples were drawn for MS-2 assay and the water was pumped through a UV (low pressure, high output UV lamp 14) at two gallons per minute. The UV dose was calibrated and known to be 12 mJ/cm^2. Following UV treatment, samples were taken for MS-2 assay. A duplicate trial was performed.

Test [3] deals with Naegleria fowleri (ATCC #30462) cysts. In words: Test for destruction of Naegleria fowleri in de-chlorinated tap water (MPN viability). The test is classed as cell-based. To be noted: Initial titer 2.42 × 10^3 cysts/mL, 2 L/minute, UV approx. 48 mJ/cm^2, ozone about 0.08 mg/L.

Several values for one entry are separate records, joined by “and”; a condition that tells them apart may be missing. Equal entries are not always repeated.

For `O=[O+][O-]` [Ozone, ozone], the “heterotrophic plate count after ozone disinfection stage” value in test [1] is given as 680 cfu/mL. Moreover, the inactivation of adenoviruses entry with adenoviruses is “more than 4 logs”. The figures for the “Final Titer” value in test [2] and in test [3] were 2.08 × 10^5 TCID50/ml and 473 mL⁻¹, respectively. The “Log10 Reduction” value in test [2] is 0.81; in test [3] it was “.071”; in test [3] (listed as ozone) it was 0.71. Further, in the test on MS-2 coliphage, the “log Inactivation” value is 1 log and 1.06 log and 1.00 log.
